The experiment deals with Proto-oncogene tyrosine-protein kinase Src (Homo sapiens, UniProt P12931). The experiment can be described thus: Inhibitory activity against SH2 domain of human p60 c-Src tyrosine kinase using surface plasmon resonance (SPR) assay.

A value given as a limit tells only on which side of the number the result lay.

Sequence of Proto-oncogene tyrosine-protein kinase Src (P12931 2-536 limits assumed): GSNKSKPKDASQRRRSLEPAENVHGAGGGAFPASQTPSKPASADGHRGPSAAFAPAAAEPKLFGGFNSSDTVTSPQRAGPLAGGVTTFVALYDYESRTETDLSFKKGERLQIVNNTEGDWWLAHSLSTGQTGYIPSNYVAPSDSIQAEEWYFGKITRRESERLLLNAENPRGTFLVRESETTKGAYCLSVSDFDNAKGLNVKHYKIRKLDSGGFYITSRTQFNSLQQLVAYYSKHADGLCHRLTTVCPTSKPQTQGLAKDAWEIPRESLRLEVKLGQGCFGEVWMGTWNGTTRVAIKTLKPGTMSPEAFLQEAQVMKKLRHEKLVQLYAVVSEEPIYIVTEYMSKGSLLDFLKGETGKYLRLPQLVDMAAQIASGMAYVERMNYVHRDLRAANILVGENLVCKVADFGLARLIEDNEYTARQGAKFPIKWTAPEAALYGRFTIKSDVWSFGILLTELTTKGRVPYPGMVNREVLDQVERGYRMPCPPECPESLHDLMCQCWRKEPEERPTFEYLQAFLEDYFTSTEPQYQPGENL

What is called IC50 is the midpoint of a concentration-inhibition curve. For `O=[N+]([O-])c1cc2c(cc1C(O)P(=O)(O)O)OCO2` (stereo not drawn), the IC50 came to 0.3 mM.

As for `O=C(O)CC(O)(CC(=O)O)C(=O)O` [CITRIC ACID], the IC50 is more than 40 mM.

For the compound `O=P(O)(O)O` [PHOSPHORIC ACID], the IC50 is more than 40 mM.

For the origin of these results see ChEMBL document CHEMBL1145907, “Requirements for specific binding of low affinity inhibitor fragments to the SH2 domain of (pp60)Src are identical to those for high affinity binding of full length inhibitors” (J Med Chem, 2003).
